Consider 16 compounds from patent US10344019B2 (priority 2010, dated 2019).

What all share (type): cell-based
The test system of assay [1] is HCV 2a Rluc cells (NS5A chimeric genotype 2a JFH-1 replicon with genotype 2a J6 strain NS5A gene, M31 present). In words: HCV replicon reporter assay, genotype 2a J6 (M31 present). The conditions noted are these: Hepatitis C virus, read-out: 2a J6. As for the experimental part:
Evaluation of cell-based anti-HCV activity: Antiviral potency (EC50) was determined using a Renilla luciferase (RLuc)-based HCV replicon reporter assay. To perform the assay for genotype 1 and 2a JFH-1, HCV 1b RLuc cells (harboring a dicistronic genotype 1b Con1 replicon that encodes a RLuc reporter), or HCV 1a RLuc cells (harboring a dicistronic genotype 1a H77 replicon that encodes a RLuc reporter), or HCV 2a JFH-1 Rluc cells (harboring a dicistronic genotype 2a JFH-1 replicon that encodes a RLuc reporter) were dispensed into 384-well plates. To perform the assay for genotype 2a (with M31 present) or 2b, HCV 2a Rluc or 2b Rluc cells (both with M31 present) harboring a dicistronic NS5A chimeric genotype 2a JFH-1 replicon that encodes a RLuc reporter and either genotype 2a J6 strain NS5A gene or genotype 2b MD2b-1 NS5A gene (based on Los Alamos HCV database isolates, both with M31 present) respectively, were dispensed into 384-well plates. To perform the assay for genotype 3 and 4, HCV 3a RLuc or 4a Rluc cells harboring a dicistronic NS5A chimeric genotype 1b Con1 replicon that encodes a RLuc reporter and either a consensus genotype 3a NS5A gene or genotype 4a NS5A gene (based on Los Alamos HCV database isolates) respectively, were dispensed into 384-well plates. Compounds were re-suspended in DMSO at a concentration of 10 mM and serially diluted in DMSO either manually or using an automated pipeting instrument. Serially diluted compounds were mixed with cell culture media and added to the seeded cells. […] 72 hours later, cells were lysed and Renilla luciferase activity quantified as recommended by the manufacturer (Promega-Madison, Wis.). Non-linear regression was performed to calculate EC50 values.
In general terms: A replicon is a self-replicating genome or part of one, used to study replication in cells.

Assay [2] deals with HCV 3a RLuc cells (NS5A chimeric genotype 1b Con1 replicon with consensus genotype 3a NS5A gene). In words: microbe, parasite or virus in culture. The conditions noted are these: Hepatitis C virus. An outline of the steps:
(§1)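 Replicon cells stably carrying the listed RLuc-encoding dicistronic replicons were seeded and treated with DMSO serial dilutions of compound (10 mM stocks) diluted into culture medium. After 72 h, cells were lysed and Renilla luciferase activity measured. EC50 was derived by non-linear regression.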

Assay [3] has as its system HCV 1a RLuc cells (dicistronic genotype 1a H77 replicon, RLuc reporter). In words: microbe, parasite or virus in culture. The conditions noted are these: Hepatitis C virus, read-out: 1a. An outline of the steps:
(§2)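 Renilla luciferase HCV replicon cells: dicistronic 1b Con1, 1a H77 or 2a JFH-1 replicons, or a JFH-1 chimera carrying J6 NS5A (M31 present). Compound in DMSO serial dilutions, 72 h incubation, then lysis and luciferase read. EC50 by non-linear regression.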

In assay [4] the test system is HCV 1b RLuc cells (dicistronic genotype 1b Con1 replicon, RLuc reporter). In words: microbe, parasite or virus in culture. The conditions noted are these: Hepatitis C virus, read-out: 1b (nM). An outline of the steps:
as §2

Assay [5] deals with HCV 4a Rluc cells (NS5A chimeric genotype 1b Con1 replicon with genotype 4a NS5A gene). In words: microbe, parasite or virus in culture. The following applies: Hepatitis C virus, read-out: 4a. An outline of the steps:
as §1

For assay [6], the system named is HCV 2a JFH-1 Rluc cells (dicistronic genotype 2a JFH-1 replicon, RLuc reporter). In words: microbe, parasite or virus in culture. The following applies: Hepatitis C virus, genotype 2a JFH-1 replicon, read-out: 2a JFH. An outline of the steps:
as §2

Where [7] appears, read: read-out: 3a, genotype 3a replicon.
Setting [8] is: read-out: 3a, Table 2, genotype 3a NS5A chimeric replicon.
Setting [9] is: 72 h, Table 2, genotype 1a H77 replicon, 72 hours.
The mark [10] stands for this setting: read-out: 3a, genotype 3a NS5A chimeric 1b Con1 replicon.
Setting [11] is: genotype 1a H77 replicon, RLuc reporter.

Like-named read-outs stand apart in the source and are kept apart here.

`COC(=O)N[C@H](C(=O)N1CCC[C@H]1c1nc2ccc3cc(-c4ccc(-c5cnc([C@@H]6[C@H]7CC[C@H](C7)N6C(=O)[C@H](NC(=O)OC)c6ccccc6)[nH]5)c(F)c4)ccc3c2[nH]1)C(C)C` [Example 306]: the EC50 in assay [1] is > 44000 pM; in assay [2] (setting [7]) it was 1 to 990 pM; in assay [3] (genotype 1a replicon) it was 1 to 999 pM; in assay [4], 0.011 nM; in assay [5], 1 to 990 pM; in assay [6], 1 to 999 pM.
Regarding `COC(=O)N[C@@H](C(=O)N1[C@@H]2CC[C@@H](C2)[C@H]1c1nc2ccc3cc(-c4ccc5c(ccc6nc([C@@H]7C[C@H]8C[C@H]8N7C(=O)[C@H](NC(=O)OC)c7ccccc7)[nH]c65)c4)ccc3c2[nH]1)c1ccccc1` [Example 406], the EC50 in assay [1] is 1 to 999 pM; in assay [2] (setting [7]), 1 to 990 pM; in assay [3] (genotype 1a replicon), 1 to 999 pM; in assay [4] it was 0.017 nM; in assay [5], 1 to 990 pM; in assay [6], 1 to 999 pM.
As to `COC(=O)N[C@H](C(=O)N1CCC[C@H]1c1nc2ccc3cc(-c4ccc(-c5cnc([C@@H]6[C@H]7CC[C@H](C7)N6C(=O)[C@@H](NC(=O)OC)[C@@H](C)OC)[nH]5)cc4)ccc3c2[nH]1)C(C)C` [Example 55], the EC50 in assay [1] was > 44000 pM; in assay [2] (setting [8]), 1 to 990 pM; in assay [3] (setting [9]), 1 to 999 pM; in assay [4] (72 h), 0.015 nM; in assay [5], 1 to 990 pM; in assay [6] (72 h, Table 2, 72 hours) it was 1 to 999 pM.
`COC(=O)N[C@H](C(=O)N1CCC[C@H]1c1nc2ccc3cc(-c4ccc5c(c4)CCc4nc([C@@H]6CC7(CN6C(=O)[C@@H](NC(=O)OC)[C@@H](C)OC)OCCO7)[nH]c4-5)ccc3c2[nH]1)C(C)C` [Example 83]: the EC50 is > 44000 pM in assay [1]; 1000 to 4990 pM in assay [2] (setting [8]); 1 to 999 pM in assay [3] (setting [9]); 0.094 nM in assay [4] (72 h); 1 to 990 pM in assay [5]; 1 to 999 pM in assay [6] (72 h, Table 2, 72 hours).
Turning to `COC(=O)N[C@H](C(=O)N1CCC[C@H]1c1ncc(-c2ccc3cc(-c4ccc5c(ccc6nc([C@@H]7[C@H]8CC[C@H](C8)N7C(=O)[C@H](NC(=O)OC)c7ccccc7)[nH]c65)c4)ccc3c2)[nH]1)[C@@H](C)OC` [Example 328], the EC50 in assay [2] (setting [7]) was 1000 to 4990 pM; in assay [3] (genotype 1a replicon) it was 1 to 999 pM; in assay [4], 0.008 nM; in assay [5] it was 1 to 990 pM; in assay [6] it was 1 to 999 pM.
Take `COC(=O)N[C@H](C(=O)N1[C@@H]2C[C@@H]2C[C@H]1c1nc2ccc3cc(-c4ccc(-c5cnc([C@@H]6[C@H]7CC[C@H](C7)N6C(=O)[C@@H](NC(=O)OC)C6CCOCC6)[nH]5)cc4)ccc3c2[nH]1)C(C)C` [Example 335]: the EC50 is 1 to 990 pM in assay [2] (setting [7]); 1 to 999 pM in assay [3] (genotype 1a replicon); 0.027 nM in assay [4]; 1 to 990 pM in assay [5]; 1 to 999 pM in assay [6].
With `COC(=O)N[C@H](C(=O)N1CCC[C@H]1c1ncc(-c2ccc3c(c2)OCc2c-3ccc(-c3cnc([C@@H]4CCCN4C(=O)[C@@H](NC(=O)OC)C(C)C)[nH]3)c2F)[nH]1)C(C)C` [Example 331], the EC50 in assay [2] (setting [7]) is 1 to 990 pM; in assay [3] (genotype 1a replicon), 1 to 999 pM; in assay [4], 0.006 nM; in assay [5] it was 1 to 990 pM; in assay [6], 1 to 999 pM.
In the case of `COC(=O)N[C@H](C(=O)N1CCC[C@H]1c1nc2ccc3cc(-c4ccc5c(ccc6nc([C@@H]7[C@H]8CC[C@H](C8)N7C(=O)[C@@H](NC(=O)OC)[C@@H](C)OC)[nH]c65)c4)ccc3c2[nH]1)C(C)C` [Example 64], the EC50 in assay [2] (setting [8]) was 1 to 990 pM; in assay [3] (setting [9]), 1 to 999 pM; in assay [4] (72 h), 0.018 nM; in assay [5], 1 to 990 pM; in assay [6] (72 h, Table 2, 72 hours), 1 to 999 pM.
For the compound `COC(=O)N[C@H](C(=O)N1[C@@H]2C[C@@H]2C[C@H]1c1nc2ccc3cc(-c4ccc(-c5cnc([C@@H]6[C@H]7CC[C@H](C7)N6C(=O)[C@@H](NC(=O)OC)[C@@H](C)OC)[nH]5)cc4)ccc3c2[nH]1)C(C)C` [Example 336], the EC50 in assay [2] (setting [7]) is 1000 to 4990 pM; in assay [3] (genotype 1a replicon), 1 to 999 pM; in assay [4], 0.013 nM; in assay [5], 1 to 990 pM; in assay [6], 1 to 999 pM.
`COC(=O)N[C@H](C(=O)N1[C@@H]2CC[C@@H](C2)[C@H]1c1ncc(-c2ccc(-c3ccc4cc(-c5cnc([C@@H]6CCCN6C(=O)[C@H](NC(=O)OC)c6ccccc6)[nH]5)ccc4c3)cc2)[nH]1)[C@@H](C)OC` [Example 72]: the EC50 in assay [2] (setting [8]) was 1 to 990 pM; in assay [3] (setting [9]), 1 to 999 pM; in assay [4] (72 h) it was 0.006 nM; in assay [5], 1 to 990 pM; in assay [6] (72 h, Table 2, 72 hours), 1 to 999 pM.
As for `COC(=O)N[C@H](C(=O)N1CCC[C@H]1c1ncc(-c2ccc(-c3cc4ccc(-c5c[nH]c([C@@H]6CCCN6C(=O)[C@H](NC(=O)OC)c6ccccc6)n5)cc4s3)cc2)[nH]1)C(C)C` [Example 252], the EC50 in assay [2] (setting [10]) was 1 to 990 pM; in assay [3] (setting [11]), 1 to 999 pM; in assay [4] it was 0.004 nM; in assay [5], 1 to 990 pM; in assay [6] (RLuc reporter), 1 to 999 pM.
Take `COC(=O)N[C@H](C(=O)N1[C@@H]2CC[C@@H](C2)[C@H]1c1nc2ccc3cc(-c4ccc5c(ccc6nc([C@@H]7C[C@H]8C[C@H]8N7C(=O)[C@H](NC(=O)OC)c7ccccc7)[nH]c65)c4)ccc3c2[nH]1)C(C)C` [Example 344]: the EC50 was 1 to 990 pM in assay [2] (setting [7]); 1 to 999 pM in assay [3] (genotype 1a replicon); 0.01 nM in assay [4]; 1 to 990 pM in assay [5]; 1 to 999 pM in assay [6].
For `COC(=O)N[C@H](C(=O)N1CCC[C@H]1c1ncc(-c2ccc3cc(-c4ccc(-c5cnc([C@@H]6[C@H]7CC[C@H](C7)N6C(=O)[C@H](NC(=O)OC)c6ccccc6)[nH]5)cc4)ccc3c2)[nH]1)C1CCOCC1` [Example 49], the EC50 in assay [2] (setting [8]) is 1 to 990 pM; in assay [3] (setting [9]) it was 1 to 999 pM; in assay [4] (72 h), 0.014 nM; in assay [5] it was 1 to 990 pM; in assay [6] (72 h, Table 2, 72 hours), 1 to 999 pM.
In the case of `COC(=O)N[C@H](C(=O)N1CCC[C@H]1c1ncc(-c2ccc3c4ccc(-c5cnc([C@@H]6CCCN6C(=O)[C@@H](NC(=O)OC)C6CCOCC6)[nH]5)cc4c4ccccc4c3c2)[nH]1)C1CCOCC1` [Example 309], the EC50 in assay [2] (setting [7]) was 1 to 990 pM; in assay [3] (genotype 1a replicon) it was 1 to 999 pM; in assay [4] it was 0.219 nM; in assay [5] it was 1 to 990 pM; in assay [6], 1 to 999 pM.
For the compound `COC(=O)N[C@H](C(=O)N1CCC[C@H]1c1ncc(-c2ccc3c(c2)C(F)(F)c2cc(-c4ccc5nc([C@@H]6CC7(CN6C(=O)[C@H](NC(=O)OC)c6ccccc6)OCCO7)[nH]c5c4)ccc2-3)[nH]1)C1CCOCC1` [Example 58], the EC50 in assay [2] (setting [8]) is 1000 to 4990 pM; in assay [3] (setting [9]), 1 to 999 pM; in assay [4] (72 h), 0.017 nM; in assay [5], 1 to 990 pM; in assay [6] (72 h, Table 2, 72 hours) it was 1 to 999 pM.
Take `COC(=O)NC(C(=O)N1C[C@H](C)C[C@H]1c1ncc(-c2ccc(-c3ccc4cc(-c5cnc([C@@H]6CCCN6C(=O)[C@@H](NC(=O)OC)C(C)C)[nH]5)ccc4c3)cc2)[nH]1)c1cccnc1` (stereo partly drawn) [Example 215]: the EC50 in assay [2] (setting [10]) is 1 to 990 pM; in assay [3] (setting [11]) it was 1 to 999 pM; in assay [4], 0.023 nM; in assay [5], 1 to 990 pM; in assay [6] (RLuc reporter) it was 1 to 999 pM.
